Legend:
[1] = biological target: T1, Atrial natriuretic peptide receptor 1 (Homo sapiens, UniProt P16066); experiment: Activation of human NPR1 expressed in CHO-K1 cells assessed as increase in cGMP production measured after 30 mins by HTRF assay; assay type: cell-based
T1 sequence (P16066 whole entry): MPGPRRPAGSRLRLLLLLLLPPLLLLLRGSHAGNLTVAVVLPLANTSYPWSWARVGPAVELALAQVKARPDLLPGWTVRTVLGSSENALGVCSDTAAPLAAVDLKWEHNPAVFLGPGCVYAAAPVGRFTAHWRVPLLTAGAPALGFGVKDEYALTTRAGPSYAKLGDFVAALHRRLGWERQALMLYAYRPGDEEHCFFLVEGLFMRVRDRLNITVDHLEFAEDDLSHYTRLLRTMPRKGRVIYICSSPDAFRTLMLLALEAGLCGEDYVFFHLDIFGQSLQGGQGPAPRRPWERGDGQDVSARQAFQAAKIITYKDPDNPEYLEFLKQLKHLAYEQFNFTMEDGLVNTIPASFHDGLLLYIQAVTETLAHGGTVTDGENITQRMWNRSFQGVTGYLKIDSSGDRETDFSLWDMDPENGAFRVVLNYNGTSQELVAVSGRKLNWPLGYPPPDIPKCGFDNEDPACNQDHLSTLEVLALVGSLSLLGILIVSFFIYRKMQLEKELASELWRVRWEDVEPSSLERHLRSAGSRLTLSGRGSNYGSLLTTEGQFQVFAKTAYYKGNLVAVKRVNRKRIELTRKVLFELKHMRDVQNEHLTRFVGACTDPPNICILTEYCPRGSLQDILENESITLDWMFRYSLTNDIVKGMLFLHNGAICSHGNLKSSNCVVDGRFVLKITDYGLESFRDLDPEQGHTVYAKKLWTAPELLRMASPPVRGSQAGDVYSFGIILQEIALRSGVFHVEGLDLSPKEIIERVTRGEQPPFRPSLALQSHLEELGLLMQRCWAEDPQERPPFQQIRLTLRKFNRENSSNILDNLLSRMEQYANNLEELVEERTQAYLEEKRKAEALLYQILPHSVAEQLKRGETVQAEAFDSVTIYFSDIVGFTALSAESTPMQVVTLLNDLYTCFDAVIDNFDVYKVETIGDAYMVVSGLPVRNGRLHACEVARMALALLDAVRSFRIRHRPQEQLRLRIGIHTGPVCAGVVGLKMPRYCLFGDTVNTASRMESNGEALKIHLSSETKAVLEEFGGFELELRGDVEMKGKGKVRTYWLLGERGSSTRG

[2] = Activation of monkey NPR1 expressed in CHO-K1 cells assessed as increase in cGMP production measured after 30 mins by HTRF assay; assay type: cell-based; details: Macaca mulatta, CHO-K1, 0.5 h

Compound: CC[C@@H](Nc1nc2c(c(N[C@@H](CN3CCC[C@H](C)C3)c3cnn(C)c3)n1)C[C@](C)(c1cccc(F)c1)CC2)C1CCC(C(=O)O)CC1 (some centres undefined)
- AC50 [1]: 42 nM
- AC50 [2]: 44 nM

Compound: CC[C@@H](Nc1nc2c(c(N[C@@H](CN3C4CCCC3CC4)c3ccccc3)n1)C[C@H](c1ccccc1)CC2)[C@H]1CC[C@H](C(=O)O)CC1
- AC50 [2]: 138 nM

Compound: CC[C@H]([C@H]1CC[C@H](C(=O)O)CC1)N(C)c1nc2c(c(N[C@@H](CN3C4CCCC3CC4)c3ccn(C)n3)n1)C[C@H](c1cccc(F)c1)CC2
- AC50 [2]: 272 nM

Compound: CC[C@@H](N(C)c1nc2c(c(N[C@@H](CN3CCCCCC3)c3cnn(C)c3)n1)C[C@H](c1cccc(F)c1)CC2)C12CC(C(=O)O)(C1)C2
- AC50 [2]: 10 nM

Compound: CC[C@@H](Nc1nc2c(c(N[C@@H](CN3CCC[C@H](C)C3)c3cnn(C)c3)n1)C[C@](C)(c1ccc(F)cc1)CC2)C1CCC(C(=O)O)CC1 (some centres undefined)
- AC50 [1]: 72 nM
- AC50 [2]: 68 nM

Compound: CC[C@@H](Nc1nc2c(c(N[C@@H](CN3CCCCCC3)c3cnn(C)c3)n1)C[C@H](c1cccc(F)c1)CC2)C1CCC(C(=O)O)CC1 (some centres undefined)
- AC50 [1]: 66 nM
- AC50 [2]: 45 nM

Reference: ChEMBL document CHEMBL6115042, “Hydroquinazoline Derivatives as Novel Natriuretic Peptide Receptor 1 (NPR1) Activators” (ACS Med Chem Lett, 2025)
